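GI50 is the concentration that inhibits growth by half. The concentration for full growth arrest is given as TGI.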
Assays:
Assay in all cases: DTP human tumour cell line panel, 384-well format
SK-MEL-5 melanoma = test system: SK-MEL-5 melanoma
HS 578T breast = test system: HS 578T breast
K-562 leukemia = test system: K-562 leukemia
SW-620 colon = test system: SW-620 colon
TK-10 renal = test system: TK-10 renal
M14 melanoma = test system: M14 melanoma
ACHN renal = test system: ACHN renal
PC-3 prostate = test system: PC-3 prostate
MDA-MB-231 breast = test system: MDA-MB-231 breast
SK-MEL-2 melanoma = test system: SK-MEL-2 melanoma
EKVX NSCLC = test system: EKVX NSCLC
UACC-257 melanoma = test system: UACC-257 melanoma
MDA-MB-435 melanoma = test system: MDA-MB-435 melanoma
KM12 colon = test system: KM12 colon
SK-OV-3 ovarian = test system: SK-OV-3 ovarian
786-0 renal = test system: 786-0 renal
OVCAR-4 ovarian = test system: OVCAR-4 ovarian
HL-60(TB) leukemia = test system: HL-60(TB) leukemia
CAKI-1 renal = test system: CAKI-1 renal
SNB-19 CNS = test system: SNB-19 CNS
OVCAR-8 ovarian = test system: OVCAR-8 ovarian
IGROV1 ovarian = test system: IGROV1 ovarian
SNB-75 CNS = test system: SNB-75 CNS
SR leukemia = test system: SR leukemia
HOP-62 NSCLC = test system: HOP-62 NSCLC
HCT-116 colon = test system: HCT-116 colon
A549 NSCLC = test system: A549 NSCLC
SK-MEL-28 melanoma = test system: SK-MEL-28 melanoma
UO-31 renal = test system: UO-31 renal
COLO 205 colon = test system: COLO 205 colon
A498 renal = test system: A498 renal
NCI-H522 lung = test system: NCI-H522 lung
OVCAR-5 ovarian = test system: OVCAR-5 ovarian
NCI-H322M lung = test system: NCI-H322M lung
U251 glioblastoma = test system: U251 glioblastoma
BT-549 breast = test system: BT-549 breast
NCI-H460 NSCLC = test system: NCI-H460 NSCLC
NCI-H23 lung = test system: NCI-H23 lung
T-47D breast = test system: T-47D breast
SF-539 CNS = test system: SF-539 CNS
SF-268 CNS = test system: SF-268 CNS
RXF 393 renal = test system: RXF 393 renal
SF-295 CNS = test system: SF-295 CNS
HCT-15 colon = test system: HCT-15 colon
OVCAR-3 ovarian = test system: OVCAR-3 ovarian
MDA-MB-468 breast = test system: MDA-MB-468 breast
HT29 colon = test system: HT29 colon
NCI-H226 lung = test system: NCI-H226 lung
MALME-3M melanoma = test system: MALME-3M melanoma
HOP-92 NSCLC = test system: HOP-92 NSCLC
UACC-62 melanoma = test system: UACC-62 melanoma
MOLT-4 leukemia = test system: MOLT-4 leukemia
DU-145 prostate = test system: DU-145 prostate
MCF7 breast = test system: MCF7 breast
SN12C renal = test system: SN12C renal

CCc1c2c(nc3ccc(OC(=O)N4CCC(N5CCCCC5)CC4)cc13)-c1cc3c(c(=O)n1C2)COC(=O)[C@]3(O)CC
GI50 (SK-MEL-5 melanoma): 2.28 µM
TGI (SK-MEL-5 melanoma): 10.8 µM
GI50 (HS 578T breast): 1.69 µM
TGI (HS 578T breast): 17.4 µM
GI50 (K-562 leukemia): 3.12 µM
TGI (K-562 leukemia): 20.8 µM
GI50 (SW-620 colon): 0.851 µM
TGI (SW-620 colon): 18.1 µM
GI50 (TK-10 renal): 9.46 µM
TGI (TK-10 renal): 38.7 µM
GI50 (M14 melanoma): 4.12 µM
TGI (M14 melanoma): 26 µM
GI50 (ACHN renal): 2.11 µM
TGI (ACHN renal): 5.05 µM
GI50 (PC-3 prostate): 12.1 µM
TGI (PC-3 prostate): 66.5 µM
GI50 (MDA-MB-231 breast): 16.9 µM
TGI (MDA-MB-231 breast): > 100 µM
GI50 (SK-MEL-2 melanoma): 16.2 µM
TGI (SK-MEL-2 melanoma): 40.3 µM
GI50 (EKVX NSCLC): 13.5 µM
TGI (EKVX NSCLC): 45 µM
GI50 (UACC-257 melanoma): 7.82 µM
TGI (UACC-257 melanoma): 29.3 µM
GI50 (MDA-MB-435 melanoma): 10.9 µM
TGI (MDA-MB-435 melanoma): 25.7 µM
GI50 (KM12 colon): 2.04 µM
TGI (KM12 colon): 10.7 µM
GI50 (SK-OV-3 ovarian): 2.91 µM
TGI (SK-OV-3 ovarian): 16.4 µM
GI50 ([…]-0 renal): 3.02 µM
TGI (786-0 renal): 10.4 µM
GI50 (OVCAR-4 ovarian): 21.5 µM
TGI (OVCAR-4 ovarian): 59.8 µM
GI50 (HL-60(TB) leukemia): 1.62 µM
TGI (HL-60(TB) leukemia): 3 µM
GI50 (CAKI-1 renal): 3.08 µM
TGI (CAKI-1 renal): > 100 µM
GI50 (SNB-19 CNS): 4.15 µM
TGI (SNB-19 CNS): > 100 µM
GI50 (OVCAR-8 ovarian): 4.03 µM
TGI (OVCAR-8 ovarian): 54.7 µM
GI50 (IGROV1 ovarian): 10.3 µM
TGI (IGROV1 ovarian): 29.1 µM
GI50 (SNB-75 CNS): 2.3 µM
TGI (SNB-75 CNS): 8.61 µM
GI50 (SR leukemia): 0.15 µM
TGI (SR leukemia): 0.299 µM
GI50 (HOP-62 NSCLC): 1.57 µM
TGI (HOP-62 NSCLC): 4.42 µM
GI50 (HCT-116 colon): 1.84 µM
TGI (HCT-116 colon): 15.5 µM
GI50 (A549 NSCLC): 8.58 µM
TGI (A549 NSCLC): 94.1 µM
GI50 (SK-MEL-28 melanoma): 7.12 µM
TGI (SK-MEL-28 melanoma): 36.8 µM
GI50 (UO-31 renal): 8.09 µM
TGI (UO-31 renal): 41.2 µM
GI50 (COLO 205 colon): 2.7 µM
TGI (COLO 205 colon): 21 µM
GI50 (A498 renal): 5.29 µM
TGI (A498 renal): 19.9 µM
GI50 (NCI-H522 lung): 1.85 µM
TGI (NCI-H522 lung): 16.7 µM
GI50 (OVCAR-5 ovarian): 14.9 µM
TGI (OVCAR-5 ovarian): 34.7 µM
GI50 (NCI-H322M lung): 16 µM
TGI (NCI-H322M lung): 42.3 µM
GI50 (U251 glioblastoma): 2.11 µM
TGI (U251 glioblastoma): 11.8 µM
GI50 (BT-549 breast): 2.51 µM
TGI (BT-549 breast): 13.4 µM
GI50 (NCI-H460 NSCLC): 4.26 µM
TGI (NCI-H460 NSCLC): 24.5 µM
GI50 (NCI-H23 lung): 2.71 µM
TGI (NCI-H23 lung): 9.66 µM
GI50 (T-47D breast): 3.53 µM
TGI (T-47D breast): 41 µM
GI50 (SF-539 CNS): 2.08 µM
TGI (SF-539 CNS): 5.14 µM
GI50 (SF-268 CNS): 1.07 µM
TGI (SF-268 CNS): 10.2 µM
GI50 (RXF 393 renal): 0.767 µM
TGI (RXF 393 renal): 5.45 µM
GI50 (SF-295 CNS): 1.89 µM
TGI (SF-295 CNS): 4.34 µM
GI50 (HCT-15 colon): 5.87 µM
TGI (HCT-15 colon): 24.1 µM
GI50 (OVCAR-3 ovarian): 1.45 µM
TGI (OVCAR-3 ovarian): 14.2 µM
GI50 (MDA-MB-468 breast): 0.731 µM
TGI (MDA-MB-468 breast): 3.01 µM
GI50 (HT29 colon): 6.08 µM
TGI (HT29 colon): 19.7 µM
GI50 (NCI-H226 lung): 3.43 µM
TGI (NCI-H226 lung): 18.8 µM
GI50 (MALME-3M melanoma): 10.7 µM
TGI (MALME-3M melanoma): 36.2 µM
GI50 (HOP-92 NSCLC): 6.81 µM
TGI (HOP-92 NSCLC): 43.9 µM
GI50 (UACC-62 melanoma): 1.21 µM
TGI (UACC-62 melanoma): 7.79 µM
GI50 (MOLT-4 leukemia): 0.153 µM
TGI (MOLT-4 leukemia): 0.301 µM
GI50 (DU-145 prostate): 2.56 µM
TGI (DU-145 prostate): 9.11 µM
GI50 (MCF7 breast): 1.3 µM
TGI (MCF7 breast): 14.8 µM
GI50 (SN12C renal): 2.58 µM
TGI (SN12C renal): 7.58 µM

From PubChem BioAssay (NCI)
